What all share (assay): Antibacterial activity, agar plate dilution method (MIC), Experimental Example 2
Holding throughout (assay type): cell-based

Experiment [1] relates to S. paratyphi 1015. The following applies: Salmonella enterica, 18 h. The method, then: (§1) There was measured, by the following method, the antibacterial activity of the compound (16) which had been produced in Example 14 with use of the compound (I) of the present invention as a synthesis intermediate.
(§2) There was employed the agar plate dilution method in accordance with the standard method of the Japanese Chemotherapy Society [Chemotherapy, vol. 29, 76-79 (1981)]. Concretely, a Mueller-Hinton (MH) agar liquid medium containing the test microorganism was cultured overnight at 37° C., and the resultant culture medium was diluted with a buffered saline gelatin (BSG) solution so that the concentration of the test microorganism might be about […]. Then, with use of a microplanter, this diluted solution was inoculated each about 5 μl on MH agar media containing the test compounds. Thus, the minimum concentration of the test compound in which no growth of the test microorganism was observed after the incubation at 37° C. for 18 hours was regarded as Minimum Inhibitory Concentration (MIC). Incidentally, all of the test organisms used here were standard strains.

For experiment [2], the system named is S. enteritidis G14. The following applies: Salmonella enterica, MH agar, 37° C., 18 hours. The method, then:
as §1, §2

Experiment [3] deals with B. subtilis ATCC 6633. Particulars: Bacillus subtilis, ATCC6633, MH agar, 37° C., 18 hours. The method, then: as §1, §2
Experiment [4] relates to S. aureus MS353. The following applies: Staphylococcus aureus, MH agar, 37° C., 18 hours. The method, then:
as §1, §2

The test system of experiment [5] is K. pneumoniae PCI-602. The following applies: Klebsiella pneumoniae, PCI602, MH agar, 37° C., 18 hours. The procedure: as §1, §2
Experiment [6] relates to M. luteus ATCC 9341. The following applies: Micrococcus luteus, ATCC9341, MH agar, 37° C., 18 hours. The method, then:
as §1, §2

Experiment [7] relates to S. typhimurium 11D971. Particulars: Salmonella enterica, MH agar, 37° C., 18 hours. The procedure: as §1, §2
Experiment [8] has as its system S. aureus FDA209P JC-1. Particulars: Staphylococcus aureus, MH agar, 37° C., 18 hours. The method, then: as §1, §2
The test system of experiment [9] is S. pyogenes Cook. Particulars: Streptococcus pyogenes, MH agar, 37° C., 18 hours. The method, then:
as §1, §2

Experiment [10] concerns S. schottmuelleri 8006. The following applies: MH agar, 37° C., 18 hours. The method, then: as §1, §2
For experiment [11], the system named is E. coli K-12 C600. Particulars: Escherichia coli, K12C600, MH agar, 37° C., 18 hours. The method, then: as §1, §2
Experiment [12] deals with P. rettgeri IFO 3850. Particulars: Providencia rettgeri, IFO3850, MH agar, 37° C., 18 hours. The method, then: as §1, §2
Experiment [13] has as its system S. typhi 901. Particulars: Salmonella enterica, 18 h. The method, then: as §1, §2
Experiment [14] concerns E. coli NIHJ JC-2. The following applies: Escherichia coli, NIHJJC2, MH agar, 37° C., 18 hours. The method, then:
as §1, §2

The subject of experiment [15] is E. aerogenes ATCC 13048. Particulars: Klebsiella aerogenes, ATCC13048, MH agar, 37° C., 18 hours. The procedure:
as §1, §2

Experiment [16] deals with P. vulgaris HX-19. Particulars: Proteus vulgaris, HX19, MH agar, 37° C., 18 hours. The procedure: as §1, §2
The test system of experiment [17] is S. marcescens IAM 1184. Particulars: Serratia marcescens, IAM1184, MH agar, 37° C., 18 hours. The method, then: as §1, §2
In experiment [18] the test system is E. cloacae 963. Particulars: Enterobacter cloacae, MH agar, 37° C., 18 hours. The method, then:
as §1, §2

In experiment [19] the test system is M. morganii IFO 3848. Particulars: Morganella morganii, IFO3848, MH agar, 37° C., 18 hours. The procedure:
as §1, §2

In experiment [20] the test system is P. vulgaris OX-19. The following applies: Proteus vulgaris, OX19, MH agar, 37° C., 18 hours. The method, then:
as §1, §2

For experiment [21], the system named is S. aureus Terajima. The following applies: Staphylococcus aureus, MH agar, 37° C., 18 hours. The procedure: as §1, §2
The subject of experiment [22] is P. mirabilis IFO 3849. Particulars: Proteus mirabilis, IFO3849, MH agar, 37° C., 18 hours. The procedure: as §1, §2

Values after ≈ are worked out from the molar mass of the structure shown.

As usually defined, the MIC is the smallest concentration in the dilution series that meets the test's criterion for growth inhibition.

For the compound `C[C@@H](O)[C@H]1C(=O)N2C(C(=O)O)=C(SC3CN(C4=NCCS4)C3)[C@H](C)[C@H]12` [compound (16), (1R, 5S, 6S)-2-[1-(1,3-thiazolin-2-yl)azetidin-3-yl]thio-6-[(R)-1-hydroxyethyl]-1-methylcarbapen-2-em-3-carboxylate], the MIC in experiment [1] is 0.05 µg/mL (≈ 0.13 µM); in [2], 0.39 µg/mL (≈ 1.02 µM); in [3] it was 0.025 µg/mL (≈ 0.0652 µM); in experiment [4] it was at most 0.006 µg/mL; in [5], 0.013 µg/mL (≈ 0.0339 µM); in experiment [6], 0.2 µg/mL (≈ 0.522 µM). Also, the MIC is 0.025 µg/mL (≈ 0.0652 µM) in experiment [7]; 0.013 µg/mL (≈ 0.0339 µM) in experiment [8]; at most 0.006 µg/mL in experiment [9]; 0.025 µg/mL (≈ 0.0652 µM) in experiment [10]; 0.1 µg/mL (≈ 0.261 µM) in [11]; 0.39 µg/mL (≈ 1.02 µM) in experiment [12]. Moreover, the MIC in [13] is at most 0.006 µg/mL; in [14] it was 0.013 µg/mL (≈ 0.0339 µM); in [15], 0.1 µg/mL (≈ 0.261 µM); in experiment [16], 0.1 µg/mL (≈ 0.261 µM); in experiment [17], 0.05 µg/mL (≈ 0.13 µM); in experiment [18] it was 0.05 µg/mL (≈ 0.13 µM). Besides, the MIC was 0.39 µg/mL (≈ 1.02 µM) in experiment [19], 0.1 µg/mL (≈ 0.261 µM) in experiment [20], at most 0.006 µg/mL in experiment [21] and 0.39 µg/mL (≈ 1.02 µM) in [22].

These data come from patent US5783703A, “Sulfur-containing compounds method for their use and prodction” (Lederle (Japan), Ltd., priority 1993, dated 1998).
